The results in this text go back to patent publication US20260166128A1, “HUMAN AMYLIN ANALOG, AND DERIVATIVE THEREOF AND USE THEREOF” (priority 2022, published 2026).

Numbered stars: 1 amine (or outer) side, 2 acyl side, 3 side chain; on linkers, the order of the positions; unused ones are H or OH. Bridge positions count the residues as written; N and C are the ends. Square brackets hold non-standard residues; d marks the D form. Side chains are listed from the residue outwards. Peptide text beside a SMILES is read from it. * marks the point of attachment. C20 diacid = O=C(O)CCCCCCCCCCCCCCCCCCC(=O)*; C18 diacid = O=C(O)CCCCCCCCCCCCCCCCC(=O)*; γGlu = O=C(O)[C@H](CCC(=O)[*:2])N[*:1]; Hyp = O=C(O)[C@@H]1C[C@@H](O)CN1; X3 = O=C(C1CCC(CN[*:1])CC1)[*:2]; Dap = NC[C@H](N)C(=O)O; AEEA = NCCOCCOCC(=O)O; Inp = O=C(O)C1CCNCC1

In this assay the target is T1, human amylin receptor (Homo sapiens, UniProt O60896+P30988).
T1 construct: host or cells: CHO-K1/Ga15/AMY3 cells, further stably transfected with a CRE-luciferase plasmid
T1 sequence (P30988 25-474): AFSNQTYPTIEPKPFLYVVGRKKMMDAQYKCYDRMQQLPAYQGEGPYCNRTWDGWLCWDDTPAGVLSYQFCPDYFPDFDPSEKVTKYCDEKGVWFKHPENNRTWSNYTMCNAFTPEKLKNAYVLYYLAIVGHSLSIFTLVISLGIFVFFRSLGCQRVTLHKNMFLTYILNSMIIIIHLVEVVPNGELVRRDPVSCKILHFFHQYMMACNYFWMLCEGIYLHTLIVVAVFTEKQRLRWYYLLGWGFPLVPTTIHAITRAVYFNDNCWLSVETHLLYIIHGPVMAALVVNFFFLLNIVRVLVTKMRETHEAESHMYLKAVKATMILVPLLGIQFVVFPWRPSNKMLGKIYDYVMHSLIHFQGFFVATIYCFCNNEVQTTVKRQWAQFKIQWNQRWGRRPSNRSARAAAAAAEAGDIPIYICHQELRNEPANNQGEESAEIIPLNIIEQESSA
T1 sequence (O60896 24-148 partner): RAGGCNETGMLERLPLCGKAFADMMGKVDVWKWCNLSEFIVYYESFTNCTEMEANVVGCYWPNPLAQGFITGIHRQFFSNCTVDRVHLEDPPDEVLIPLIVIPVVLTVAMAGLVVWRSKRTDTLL
Nature of the assay: Luciferase assay of amylin derivatives in amylin receptor/CRE-luc CHO cell line. In kind it is cell-based. The settings on record: CHO-K1/Ga15/AMY3 CRE-luc cells, 24 hours incubation, F12 medium containing 10% FBS; read-out: EC50.
Experimental: The experiment was intended to detect the activity or efficacy of the amylin derivatives on a human amylin receptor in vitro by luciferase assay.
50 μL of growth medium (F12 medium containing 10% FBS) was added into each well of a white 96-well plate, and the stably transfected amylin/CRE-lue CHO cells were inoculated into the white 96-well plate at a density of about 20,000 cells/well for activity determination.
As for `CC[C@H](C)[C@H](NC(=O)[C@@H]1CCCN1C(=O)[C@H](CCCNC(=N)N)NC(=O)[C@H](CC(C)C)NC(=O)[C@H](CC(N)=O)NC(=O)[C@H](CC(N)=O)NC(=O)[C@H](CO)NC(=O)[C@H](CO)NC(=O)[C@H](Cc1c[nH]cn1)NC(=O)[C@H](CCCNC(=N)N)NC(=O)[C@H](CC(C)C)NC(=O)[C@H](Cc1ccccc1)NC(=O)[C@H](CC(=O)O)NC(=O)[C@H](C)NC(=O)[C@H](CC(C)C)NC(=O)[C@H](CCCNC(=N)N)NC(=O)[C@H](CCC(N)=O)NC(=O)[C@@H](NC(=O)[C@H](C)NC(=O)[C@@H]1CSSC[C@H](NC(=O)[C@H](CCCNC(=N)N)NC(=O)CC[C@H](NC(=O)CCCCCCCCCCCCCCCCCCC(=O)O)C(=O)O)C(=O)N[C@@H](CC(N)=O)C(=O)N[C@@H]([C@@H](C)O)C(=O)N[C@@H](C)C(=O)N[C@@H]([C@@H](C)O)C(=O)N1)[C@@H](C)O)C(=O)N[C@@H](CC(C)C)C(=O)N1CCC[C@H]1C(=O)N1CCC[C@H]1C(=O)N[C@H](C(=O)N[C@@H](CC(N)=O)C(=O)N[C@H](C(=O)NCC(=O)N[C@@H](CO)C(=O)N[C@@H](CC(N)=O)C(=O)N[C@H](C(=O)N1CCC[C@H]1C(N)=O)[C@@H](C)O)C(C)C)[C@@H](C)O` [PD197] ({C20 diacid-γGlu}-RCNTATCATQRLADFLRHSSNNLRPILPPTNVGSNTP-NH2; disulfide 2-7 (inferred)), the concentration giving a half-maximal response (EC50) came out at 0.025 nM.

In the case of `CC[C@H](C)[C@H](NC(=O)[C@@H]1CCCN1C(=O)CNC(=O)[C@H](CC(C)C)NC(=O)[C@H](CC(N)=O)NC(=O)[C@H](CC(N)=O)NC(=O)[C@H](CO)NC(=O)[C@H](CCCCNC(=O)CC[C@H](NC(=O)CCCCCCCCCCCCCCCCC(=O)O)C(=O)O)NC(=O)[C@H](Cc1c[nH]cn1)NC(=O)[C@H](CCCNC(=N)N)NC(=O)[C@H](CC(C)C)NC(=O)[C@H](Cc1ccccc1)NC(=O)[C@H](CC(=O)O)NC(=O)[C@H](C)NC(=O)[C@H](CC(C)C)NC(=O)[C@H](CCCNC(=N)N)NC(=O)[C@H](CCC(N)=O)NC(=O)[C@@H](NC(=O)[C@H](C)NC(=O)[C@@H]1CSSC[C@H](NC(=O)[C@@H](N)CCCNC(=N)N)C(=O)N[C@@H](CC(N)=O)C(=O)N[C@@H]([C@@H](C)O)C(=O)N[C@@H](C)C(=O)N[C@@H]([C@@H](C)O)C(=O)N1)[C@@H](C)O)C(=O)N[C@@H](CC(C)C)C(=O)N1CCC[C@H]1C(=O)N1CCC[C@H]1C(=O)N[C@H](C(=O)N[C@@H](CC(N)=O)C(=O)N[C@H](C(=O)NCC(=O)N[C@@H](CO)C(=O)N[C@@H](CC(N)=O)C(=O)N[C@H](C(=O)N1C[C@H](O)C[C@H]1C(N)=O)[C@@H](C)O)C(C)C)[C@@H](C)O` [PD100] (H-RCNTATCATQRLADFLRHK([γGlu-C18 diacid])SNNLGPILPPTNVGSNT[Hyp]-NH2; disulfide 2-7), the EC50 turned out to be 0.06 nM. Regarding `CC[C@H](C)[C@H](NC(=O)[C@@H]1CCCN1C(=O)[C@H](CN)NC(=O)[C@H](CC(C)C)NC(=O)[C@H](CC(N)=O)NC(=O)[C@H](CC(N)=O)NC(=O)[C@H](CO)NC(=O)[C@H](CO)NC(=O)[C@H](Cc1c[nH]cn1)NC(=O)[C@H](CCCNC(=N)N)NC(=O)[C@H](CC(C)C)NC(=O)[C@H](Cc1ccccc1)NC(=O)[C@H](CC(=O)O)NC(=O)[C@H](C)NC(=O)[C@H](CC(C)C)NC(=O)[C@H](CCCNC(=N)N)NC(=O)[C@H](CCC(N)=O)NC(=O)[C@@H](NC(=O)[C@H](C)NC(=O)[C@@H]1CSSC[C@H](NC(=O)[C@H](CCCCN)NC(=O)CC[C@H](NC(=O)CCCCCCCCCCCCCCCCCCC(=O)O)C(=O)O)C(=O)N[C@@H](CC(N)=O)C(=O)N[C@@H]([C@@H](C)O)C(=O)N[C@@H](C)C(=O)N[C@@H]([C@@H](C)O)C(=O)N1)[C@@H](C)O)C(=O)N[C@@H](CC(C)C)C(=O)N1CCC[C@H]1C(=O)N1CCC[C@H]1C(=O)N[C@H](C(=O)N[C@@H](CC(N)=O)C(=O)N[C@H](C(=O)NCC(=O)N[C@@H](CO)C(=O)N[C@@H](CC(N)=O)C(=O)N[C@H](C(=O)N1CCC[C@H]1C(N)=O)[C@@H](C)O)C(C)C)[C@@H](C)O` [PD168] ({C20 diacid-γGlu}-KCNTATCATQRLADFLRHSSNNL[Dap]PILPPTNVGSNTP-NH2; disulfide 2-7 (inferred)), the EC50 was 0.041 nM. The value for `CC[C@H](C)[C@H](NC(=O)[C@@H]1CCCN1C(=O)[C@H](CCCCN)NC(=O)[C@H](CC(C)C)NC(=O)[C@H](CC(N)=O)NC(=O)[C@H](CC(N)=O)NC(=O)[C@H](CO)NC(=O)[C@H](CO)NC(=O)[C@H](Cc1c[nH]cn1)NC(=O)[C@H](CCCNC(=N)N)NC(=O)[C@H](CC(C)C)NC(=O)[C@H](Cc1ccccc1)NC(=O)[C@H](CC(=O)O)NC(=O)[C@H](C)NC(=O)[C@H](CC(C)C)NC(=O)[C@H](CCCNC(=N)N)NC(=O)[C@H](CCC(N)=O)NC(=O)[C@@H](NC(=O)[C@H](C)NC(=O)[C@@H]1CSSC[C@H](NC(=O)[C@H](CCCCN)NC(=O)COCCOCCNC(=O)COCCOCCNC(=O)C2CCN(C(=O)CCCCCCCCCCCCCCCCCCC(=O)O)CC2)C(=O)N[C@@H](CC(N)=O)C(=O)N[C@@H]([C@@H](C)O)C(=O)N[C@@H](C)C(=O)N[C@@H]([C@@H](C)O)C(=O)N1)[C@@H](C)O)C(=O)N[C@@H](CC(C)C)C(=O)N1CCC[C@H]1C(=O)N1CCC[C@H]1C(=O)N[C@H](C(=O)N[C@@H](CC(N)=O)C(=O)N[C@H](C(=O)NCC(=O)N[C@@H](CO)C(=O)N[C@@H](CC(N)=O)C(=O)N[C@H](C(=O)N1C[C@H](O)C[C@H]1C(N)=O)[C@@H](C)O)C(C)C)[C@@H](C)O` [PD179] ({C20 diacid-Inp-AEEA-AEEA}-KCNTATCATQRLADFLRHSSNNLKPILPPTNVGSNT[Hyp]-NH2; disulfide 2-7) was 0.017 nM; that for `CC[C@H](C)[C@H](NC(=O)[C@@H]1CCCN1C(=O)C1CCC(CNC(=O)[C@H](CC(C)C)NC(=O)[C@H](CC(N)=O)NC(=O)[C@H](CC(N)=O)NC(=O)[C@H](CO)NC(=O)[C@H](CO)NC(=O)[C@H](Cc2c[nH]cn2)NC(=O)[C@H](CCCNC(=N)N)NC(=O)[C@H](CC(C)C)NC(=O)[C@H](Cc2ccccc2)NC(=O)[C@H](CC(=O)O)NC(=O)[C@H](C)NC(=O)[C@H](CC(C)C)NC(=O)[C@H](CCCNC(=N)N)NC(=O)[C@H](CCC(N)=O)NC(=O)[C@@H](NC(=O)[C@H](C)NC(=O)[C@@H]2CSSC[C@H](NC(=O)[C@H](CCCCN)NC(=O)CC[C@H](NC(=O)CCCCCCCCCCCCCCCCCCC(=O)O)C(=O)O)C(=O)N[C@@H](CC(N)=O)C(=O)N[C@@H]([C@@H](C)O)C(=O)N[C@@H](C)C(=O)N[C@@H]([C@@H](C)O)C(=O)N2)[C@@H](C)O)CC1)C(=O)N[C@@H](CC(C)C)C(=O)N1CCC[C@H]1C(=O)N1CCC[C@H]1C(=O)N[C@H](C(=O)N[C@@H](CC(N)=O)C(=O)N[C@H](C(=O)NCC(=O)N[C@@H](CO)C(=O)N[C@@H](CC(N)=O)C(=O)N[C@H](C(=O)N1CCC[C@H]1C(N)=O)[C@@H](C)O)C(C)C)[C@@H](C)O` (stereo partly drawn) [PD173] ({C20 diacid-γGlu}-KCNTATCATQRLADFLRHSSNNL[X3]PILPPTNVGSNTP-NH2; disulfide 2-7) was 0.064 nM.

Take `CC[C@H](C)[C@H](NC(=O)[C@@H]1CCCN1C(=O)CNC(=O)[C@H](CCCCNC(=O)COCCOCCNC(=O)COCCOCCNC(=O)CC[C@H](NC(=O)CCCCCCCCCCCCCCCCCCC(=O)O)C(=O)O)NC(=O)[C@H](CC(N)=O)NC(=O)[C@H](CC(N)=O)NC(=O)[C@H](CO)NC(=O)[C@H](CO)NC(=O)[C@H](Cc1c[nH]cn1)NC(=O)[C@H](CCCNC(=N)N)NC(=O)[C@H](CC(C)C)NC(=O)[C@H](Cc1ccccc1)NC(=O)[C@H](CC(=O)O)NC(=O)[C@H](C)NC(=O)[C@H](CC(C)C)NC(=O)[C@H](CCCNC(=N)N)NC(=O)[C@H](CCC(N)=O)NC(=O)[C@@H](NC(=O)[C@H](C)NC(=O)[C@@H]1CSSC[C@H](NC(=O)[C@@H](N)CCCNC(=N)N)C(=O)N[C@@H](CC(N)=O)C(=O)N[C@@H]([C@@H](C)O)C(=O)N[C@@H](C)C(=O)N[C@@H]([C@@H](C)O)C(=O)N1)[C@@H](C)O)C(=O)N[C@@H](CC(C)C)C(=O)N1CCC[C@H]1C(=O)N1CCC[C@H]1C(=O)N[C@H](C(=O)N[C@@H](CC(N)=O)C(=O)N[C@H](C(=O)NCC(=O)N[C@@H](CO)C(=O)N[C@@H](CC(N)=O)C(=O)N[C@H](C(=O)N1C[C@H](O)C[C@H]1C(N)=O)[C@@H](C)O)C(C)C)[C@@H](C)O` [PD083] (H-RCNTATCATQRLADFLRHSSNNK([AEEA-AEEA-γGlu-C20 diacid])GPILPPTNVGSNT[Hyp]-NH2; disulfide 2-7): the EC50 worked out at 0.037 nM.

One may read the EC50 as the concentration that produces a half-maximal response.
